Assay results published in ChEMBL document CHEMBL1132096, “Structure-related enhancing activity of escins Ia, Ib, IIa and IIb on magnesium absorption in mice” (1999).

Columns and labels:
Mus musculus [1] = experiment: Serum Magnesium ion level in MgSO4 unloaded mice at a concentration of 25 mg/kg administered perorally; format: functional, organism-based; design: dose 25 mg/kg
Mus musculus [2] = experiment: Increased Magnesium ion level in 0.5 M MgSO4 loaded ([…] p.o.) mice at a concentration of 5 mg/kg administered perorally; format: functional; details: route oral
Mus musculus [3] = experiment: Increased Magnesium ion level in 0.5 M MgSO4 loaded ([…] p.o.) mice at a concentration of 25 mg/kg administered perorally; format: functional; details: route oral
Mus musculus [4] = experiment: Serum Magnesium ion level in 0.5 M MgSO4 loaded ([…] p.o.) mice at a concentration of 12.5 mg/kg administered perorally; format: functional, organism-based; design: dose 12.5 mg/kg
Mus musculus [5] = experiment: Increased Magnesium ion level in 0.5 M MgSO4 loaded ([…] p.o.) mice at a concentration of 12.5 mg/kg administered perorally; format: functional; details: route oral
Mus musculus [6] = experiment: Serum Magnesium ion level in 0.5 M MgSO4 loaded ([…] p.o.) mice at a concentration of 25 mg/kg administered perorally.; format: functional, organism-based; design: dose 25 mg/kg
Mus musculus [7] = experiment: Serum Magnesium ion level in 0.5 M MgSO4 loaded ([…] p.o.) mice at a concentration of 5 mg/kg administered perorally; format: functional, organism-based; design: dose 5 mg/kg
Mus musculus [8] = experiment: Serum Magnesium ion level in 0.5 M MgSO4 loaded ([…] p.o.) mice at a concentration of 25 mg/kg administered perorally; format: functional, organism-based; design: dose 25 mg/kg
Mus musculus [9] = experiment: Increased Magnesium ion level in 0.5 M MgSO4 loaded ([…] p.o.) mice pretreatment with Insulin (1U/kg, s.c) at a concentration of 12.5 mg/kg administered perorally; format: functional; details: route oral
Mus musculus [10] = experiment: Serum Magnesium ion level in 0.5 M MgSO4 loaded ([…] p.o.) mice pretreatment with Insulin (1U/kg, s.c) at a concentration of 12.5 mg/kg administered perorally; format: functional, organism-based; design: dose 12.5 mg/kg
Mus musculus [11] = experiment: Serum Magnesium ion level in 1.67 M MgSO4 loaded ([…] p.o.) mice pretreatment with STZ (100 mg/kg, i.v.) at a concentration of 50 mg/kg administered perorally; format: functional, organism-based; design: dose 50 mg/kg
Mus musculus [12] = experiment: Increased Magnesium ion level in 1.67 M MgSO4 loaded ([…] p.o.) mice pretreatment with STZ (100 mg/kg, i.v.) at a concentration of 50 mg/kg administered perorally; format: functional; details: route oral
Mus musculus [13] = experiment: Serum Magnesium ion level in 0.5 M MgSO4 loaded ([…] p.o.) mice pretreatment with Indomethacin (10 mg/kg, s.c) at a concentration of 12.5 mg/kg administered perorally; format: functional, organism-based; design: dose 12.5 mg/kg
Mus musculus [14] = experiment: Increased Magnesium ion level in 1.67 M MgSO4 loaded ([…] p.o.) mice at a concentration of 50 mg/kg administered perorally; format: functional; details: route oral
Mus musculus [15] = experiment: Serum Magnesium ion level in 1.67 M MgSO4 loaded ([…] p.o.) mice at a concentration of 50 mg/kg administered perorally; format: functional, organism-based; design: dose 50 mg/kg
Mus musculus [16] = experiment: Increased Magnesium ion level in 0.5 M MgSO4 loaded ([…]) mice pretreatment with Indomethacin (10 mg/kg, s.c) at a concentration of 12.5 mg/kg administered perorally; format: functional; details: route oral

Structure (SMILES)	Serum Mg2+ level (Mus musculus [1])	Increase (Mus musculus [2]) [%]	Increase (Mus musculus [3]) [%]	Serum Mg2+ level (Mus musculus [4])	Increase (Mus musculus [5]) [%]	Serum Mg2+ level (Mus musculus [6])	Serum Mg2+ level (Mus musculus [7])	Serum Mg2+ level (Mus musculus [8])	Increase (Mus musculus [9]) [%]	Serum Mg2+ level (Mus musculus [10])	Serum Mg2+ level (Mus musculus [11])	Increase (Mus musculus [12]) [%]	Serum Mg2+ level (Mus musculus [13])	Increase (Mus musculus [14]) [%]	Serum Mg2+ level (Mus musculus [15])	Increase (Mus musculus [16]) [%]
C/C=C(\C)C(=O)O[C@H]1[C@H](OC(C)=O)[C@@]2(CO)C(CC1(C)C)C1=CCC3[C@@]4(C)CC[C@H](O[C@@H]5OC(C(=O)O)C(O[C@@H]6OC(CO)C(O)[C@@H](O)[C@@H]6O)[C@@H](O)[C@@H]5O[C@@H]5OC(CO)C(O)[C@@H](O)[C@@H]5O)[C@](C)(CO)C4CC[C@@]3(C)[C@]1(C)C[C@H]2O (stereo partly specified)	3.1	9.1	9.1	3.3	0	3.6	3.6									
C/C=C(\C)C(=O)O[C@H]1[C@H](OC(C)=O)[C@@]2(CO)C(CC1(C)C)C1=CCC3[C@@]4(C)CC[C@H](O[C@@H]5O[C@H](C(=O)O)[C@@H](O[C@@H]6O[C@H](CO)[C@@H](O)[C@H](O)[C@H]6O)[C@H](O)[C@H]5O[C@@H]5OC[C@@H](O)[C@H](O)[C@H]5O)[C@](C)(CO)C4CC[C@@]3(C)[C@]1(C)C[C@H]2O (stereo partly specified) [AESCIN]	3.1	-6.3	12.5	3.1	-3.1		3	3.6								
C/C=C(/C)C(=O)O[C@H]1[C@H](OC(C)=O)[C@@]2(CO)C(CC1(C)C)C1=CCC3[C@@]4(C)CC[C@H](O[C@@H]5OC(C(=O)O)C(O[C@@H]6OC(CO)C(O)[C@@H](O)[C@@H]6O)[C@@H](O)[C@@H]5O[C@@H]5OC(CO)C(O)[C@@H](O)[C@@H]5O)[C@](C)(CO)C4CC[C@@]3(C)[C@]1(C)C[C@H]2O (stereo partly specified)	3.1	12.1	24.2	3.9	18.2		3.7	4.1	30.8	5.1	6.3	26	4.3	38.6	7.9	34.4
CC1(C)CC2C3=CCC4[C@@]5(C)CC[C@H](O[C@@H]6OC(C(=O)O)C(O[C@@H]7OC(CO)C(O)[C@@H](O)[C@@H]7O)[C@@H](O)[C@@H]6O[C@@H]6OCC(O)[C@@H](O)[C@@H]6O)[C@](C)(CO)C5CC[C@@]4(C)[C@]3(C)C[C@@H](O)[C@@]2(CO)[C@@H](O)[C@@H]1O (stereo partly specified)			3					3.4								
